Source: patent US11339502B2, “Combinatorial derivatives of oligopeptides having antiviral properties” (priority 2017, dated 2022)

Legend:
Format in all cases: cell-based
[1] = tested on: H1N1 influenza virus
[2] = tested on: vesicular stomatitis virus (reference strain)
[3] = tested on: herpes simplex virus type 1 (strain L-2)

KKRKRKRKR [derivative 54]
0%: % cytoprotective antiviral activity, Inf [1] | % cytoprotective antiviral activity, Vesic [2] | % cytoprotective antiviral activity, Herp [3]
